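All cell lines were grown in 96-well plates and treated with compound for 48 hours. TGI denotes the concentration required for complete inhibition of growth.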
How the values were obtained:
Experiment in all cases: NCI tumour cell line growth inhibition, 48 h
IGROV1 ovarian = system: IGROV1 ovarian
SK-MEL-28 melanoma = system: SK-MEL-28 melanoma
UO-31 renal = system: UO-31 renal
MDA-MB-231 breast = system: MDA-MB-231 breast
U251 CNS = system: U251 CNS
NCI-H522 lung = system: NCI-H522 lung
PC-3 prostate = system: PC-3 prostate
UACC-257 melanoma = system: UACC-257 melanoma
RXF 393 renal = system: RXF 393 renal
HCT-116 colon = system: HCT-116 colon
RPMI-8226 leukemia = system: RPMI-8226 leukemia
OVCAR-5 ovarian = system: OVCAR-5 ovarian
SK-MEL-5 melanoma = system: SK-MEL-5 melanoma
CCRF-CEM leukemia = system: CCRF-CEM leukemia
NCI-H23 lung = system: NCI-H23 lung
A549 NSCLC = system: A549 NSCLC
MDA-MB-435 = system: MDA-MB-435
A498 renal = system: A498 renal
MALME-3M melanoma = system: MALME-3M melanoma
SF-295 CNS = system: SF-295 CNS
MOLT-4 leukemia = system: MOLT-4 leukemia
SR leukemia = system: SR leukemia
NCI/ADR-RES ovarian = system: NCI/ADR-RES ovarian
SNB-19 CNS = system: SNB-19 CNS
SW-620 colon = system: SW-620 colon
OVCAR-4 ovarian = system: OVCAR-4 ovarian
UACC-62 melanoma = system: UACC-62 melanoma
HL-60(TB) leukemia = system: HL-60(TB) leukemia
TK-10 renal = system: TK-10 renal
SN12C renal = system: SN12C renal
DU-145 prostate = system: DU-145 prostate
SK-MEL-2 melanoma = system: SK-MEL-2 melanoma
NCI-H460 lung = system: NCI-H460 lung
NCI-H226 lung = system: NCI-H226 lung
HCT-15 colon = system: HCT-15 colon
EKVX NSCLC = system: EKVX NSCLC
KM12 colon = system: KM12 colon
M14 melanoma = system: M14 melanoma
SF-539 CNS = system: SF-539 CNS
SNB-75 CNS = system: SNB-75 CNS
OVCAR-8 ovarian = system: OVCAR-8 ovarian
COLO 205 colon = system: COLO 205 colon
ACHN renal = system: ACHN renal
OVCAR-3 ovarian = system: OVCAR-3 ovarian
HCC-2998 colon = system: HCC-2998 colon
LOX IMVI melanoma = system: LOX IMVI melanoma
786-0 renal = system: 786-0 renal
HOP-92 NSCLC = system: HOP-92 NSCLC
CAKI-1 renal = system: CAKI-1 renal
SK-OV-3 ovarian = system: SK-OV-3 ovarian
MCF7 breast = system: MCF7 breast
MDA-N = system: MDA-N
HS 578T breast = system: HS 578T breast
SF-268 CNS = system: SF-268 CNS
BT-549 breast = system: BT-549 breast
HOP-62 NSCLC = system: HOP-62 NSCLC
HT29 colon = system: HT29 colon
K-562 leukemia = system: K-562 leukemia
T-47D breast = system: T-47D breast

**Q.** With `CC(C)(C)OC(=O)[C@H]1CCC(=S)N1Cc1ccccc1` as the molecule, how does the TGI (IGROV1 ovarian) read?
**A.** Its TGI is > 100 µM.

**Q.** What about the TGI (SK-MEL-28 melanoma) of the same molecule?
**A.** The TGI was > 100 µM.

**Q.** What about the TGI (UO-31 renal) of the same molecule?
**A.** The TGI was > 100 µM.

**Q.** And the TGI (MDA-MB-231 breast)?
**A.** The TGI was > 100 µM.

**Q.** And the TGI (U251 CNS)?
**A.** The TGI was > 100 µM.

**Q.** And the TGI (NCI-H522 lung)?
**A.** Its TGI is > 100 µM.

**Q.** What about the TGI (PC-3 prostate) of the same molecule?
**A.** Its TGI is > 100 µM.

**Q.** What about the TGI (UACC-257 melanoma) of the same molecule?
**A.** The TGI was > 100 µM.

**Q.** What about the TGI (RXF 393 renal) of the same molecule?
**A.** Its TGI is > 100 µM.

**Q.** What about the TGI (HCT-116 colon) of the same molecule?
**A.** Its TGI is > 100 µM.

**Q.** What about the TGI (RPMI-8226 leukemia) of the same molecule?
**A.** The TGI was > 100 µM.

**Q.** What about the TGI (OVCAR-5 ovarian) of the same molecule?
**A.** The TGI was > 100 µM.

**Q.** What about the TGI (SK-MEL-5 melanoma) of the same molecule?
**A.** Its TGI is > 100 µM.

**Q.** What about the TGI (CCRF-CEM leukemia) of the same molecule?
**A.** Its TGI is > 100 µM.

**Q.** And the TGI (NCI-H23 lung)?
**A.** Its TGI is > 100 µM.

**Q.** And the TGI (A549 NSCLC)?
**A.** Its TGI is > 100 µM.

**Q.** What about the TGI (MDA-MB-435) of the same molecule?
**A.** Its TGI is > 100 µM.

**Q.** And the TGI (A498 renal)?
**A.** The TGI was > 100 µM.

**Q.** What about the TGI (MALME-3M melanoma) of the same molecule?
**A.** Its TGI is > 100 µM.

**Q.** And the TGI (SF-295 CNS)?
**A.** The TGI was > 100 µM.

**Q.** And the TGI (MOLT-4 leukemia)?
**A.** The TGI was > 100 µM.

**Q.** What about the TGI (SR leukemia) of the same molecule?
**A.** Its TGI is > 100 µM.

**Q.** What about the TGI (NCI/ADR-RES ovarian) of the same molecule?
**A.** Its TGI is > 100 µM.

**Q.** What about the TGI (SNB-19 CNS) of the same molecule?
**A.** The TGI was > 100 µM.

**Q.** And the TGI (SW-620 colon)?
**A.** Its TGI is > 100 µM.

**Q.** And the TGI (OVCAR-4 ovarian)?
**A.** The TGI was > 100 µM.

**Q.** And the TGI (UACC-62 melanoma)?
**A.** The TGI was > 100 µM.

**Q.** What about the TGI (HL-60(TB) leukemia) of the same molecule?
**A.** The TGI was > 100 µM.

**Q.** And the TGI (TK-10 renal)?
**A.** The TGI was > 100 µM.

**Q.** And the TGI (SN12C renal)?
**A.** Its TGI is > 100 µM.

**Q.** And the TGI (DU-145 prostate)?
**A.** The TGI was > 100 µM.

**Q.** What about the TGI (SK-MEL-2 melanoma) of the same molecule?
**A.** Its TGI is > 100 µM.

**Q.** What about the TGI (NCI-H460 lung) of the same molecule?
**A.** The TGI was > 100 µM.

**Q.** What about the TGI (NCI-H226 lung) of the same molecule?
**A.** The TGI was > 100 µM.

**Q.** And the TGI (HCT-15 colon)?
**A.** Its TGI is > 100 µM.

**Q.** What about the TGI (EKVX NSCLC) of the same molecule?
**A.** Its TGI is > 100 µM.

**Q.** What about the TGI (KM12 colon) of the same molecule?
**A.** Its TGI is > 100 µM.

**Q.** What about the TGI (M14 melanoma) of the same molecule?
**A.** Its TGI is > 100 µM.

**Q.** And the TGI (SF-539 CNS)?
**A.** The TGI was > 100 µM.

**Q.** What about the TGI (SNB-75 CNS) of the same molecule?
**A.** Its TGI is > 100 µM.

**Q.** And the TGI (OVCAR-8 ovarian)?
**A.** The TGI was > 100 µM.

**Q.** What about the TGI (COLO 205 colon) of the same molecule?
**A.** The TGI was > 100 µM.

**Q.** What about the TGI (ACHN renal) of the same molecule?
**A.** The TGI was > 100 µM.

**Q.** What about the TGI (OVCAR-3 ovarian) of the same molecule?
**A.** The TGI was > 100 µM.

**Q.** And the TGI (HCC-2998 colon)?
**A.** Its TGI is > 100 µM.

**Q.** What about the TGI (LOX IMVI melanoma) of the same molecule?
**A.** The TGI was > 100 µM.

**Q.** What about the TGI (786-0 renal) of the same molecule?
**A.** The TGI was > 100 µM.

**Q.** And the TGI (HOP-92 NSCLC)?
**A.** Its TGI is > 100 µM.

**Q.** And the TGI (CAKI-1 renal)?
**A.** Its TGI is > 100 µM.

**Q.** What about the TGI (SK-OV-3 ovarian) of the same molecule?
**A.** The TGI was > 100 µM.

**Q.** And the TGI (MCF7 breast)?
**A.** The TGI was > 100 µM.

**Q.** And the TGI (MDA-N)?
**A.** Its TGI is > 100 µM.

**Q.** What does the source list for `Cc1cc2oc(=N)c(C#N)c(C)c2cc1C`?
**A.** TGI (IGROV1 ovarian): > 100 µM; TGI (SK-MEL-28 melanoma): > 100 µM; TGI (UO-31 renal): > 100 µM; TGI (MDA-MB-231 breast): > 100 µM; TGI (U251 CNS): > 100 µM; TGI (HS 578T breast): > 100 µM; TGI (PC-3 prostate): > 100 µM; TGI (UACC-257 melanoma): > 100 µM; TGI (SF-268 CNS): > 100 µM; TGI (RXF 393 renal): 87.3 µM; TGI (HCT-116 colon): > 100 µM; TGI (RPMI-8226 leukemia): > 100 µM; TGI (OVCAR-5 ovarian): > 100 µM; TGI (SK-MEL-5 melanoma): > 100 µM; TGI (CCRF-CEM leukemia): > 100 µM; TGI (NCI-H23 lung): > 100 µM; TGI (A549 NSCLC): > 100 µM; TGI (MDA-MB-435): > 100 µM; TGI (A498 renal): > 100 µM; TGI (MALME-3M melanoma): > 100 µM; TGI (SF-295 CNS): > 100 µM; TGI (MOLT-4 leukemia): 33.2 µM; TGI (NCI/ADR-RES ovarian): > 100 µM; TGI (SNB-19 CNS): > 100 µM; TGI (SW-620 colon): > 100 µM; TGI (OVCAR-4 ovarian): > 100 µM; TGI (UACC-62 melanoma): > 100 µM; TGI (HL-60(TB) leukemia): > 100 µM; TGI (TK-10 renal): > 100 µM; TGI (SN12C renal): > 100 µM; TGI (BT-549 breast): > 100 µM; TGI (DU-145 prostate): > 100 µM; TGI (SK-MEL-2 melanoma): > 100 µM; TGI (NCI-H460 lung): > 100 µM; TGI (NCI-H226 lung): > 100 µM; TGI (HCT-15 colon): > 100 µM; TGI (EKVX NSCLC): > 100 µM; TGI (KM12 colon): > 100 µM; TGI (M14 melanoma): > 100 µM; TGI (SF-539 CNS): > 100 µM; TGI (SNB-75 CNS): 79.8 µM; TGI (OVCAR-8 ovarian): > 100 µM; TGI (HOP-62 NSCLC): > 100 µM; TGI (COLO 205 colon): > 100 µM; TGI (ACHN renal): > 100 µM; TGI (HT29 colon): > 100 µM; TGI (K-562 leukemia): > 100 µM; TGI (OVCAR-3 ovarian): > 100 µM; TGI (HCC-2998 colon): > 100 µM; TGI (LOX IMVI melanoma): > 100 µM; TGI (T-47D breast): > 100 µM; TGI (786-0 renal): > 100 µM; TGI (HOP-92 NSCLC): > 100 µM; TGI (CAKI-1 renal): > 100 µM; TGI (SK-OV-3 ovarian): > 100 µM; TGI (MCF7 breast): > 100 µM; TGI (MDA-N): > 100 µM

— PubChem BioAssay (NCI)
